Tests used:
HIV-1 = assay: Anti-Viral Assay (method of Pauwels et al.); assay type: cell-based; conditions: Human immunodeficiency virus 1, read-out: Anti-Viral Assay
Procedure: Anti-viral assays were carried out by the method described by R. E. Pauwels et al. J. Virol. Methods 1988 20(4):309-322.

HIV-1 RT = HIV-1 RT (Human immunodeficiency virus type 1 group M subtype B, UniProt P03366); assay: HIV Reverse Transcriptase Assay: Inhibitor IC50 Determination; assay type: biochemical; conditions: purified recombinant enzyme, poly(rA)/oligo(dT)16 template-primer, 37° C. 30 min
Procedure: HIV Reverse Transcriptase Assay: Inhibitor IC50 Determination
HIV-1 RT assay was carried out in 96-well Millipore MultiScreen MADVNOB50 plates using purified recombinant enzyme and a poly(rA)/oligo(dT)16 template-primer in a total volume of 50 μL. The assay constituents were 50 mM Tris/HCl, 50 mM NaCl, 1 mM EDTA, 6 mM MgCl2, 5 μM dTTP, 0.15 μCi [^3H] dTTP, 5 μg/ml poly (rA) pre annealed to 2.5 μg/ml oligo (dT)16 and a range of inhibitor concentrations in a final concentration of 10% DMSO. Reactions were initiated by adding 4 nM HIV-1 RT and after incubation at 37° C. for 30 min, they were stopped by the addition of 50 μl ice cold 20% TCA and allowed to precipitate at 4° C. for 30 min. The precipitates were collected by applying vacuum to the plate and sequentially washing with 3×200 μl of 10% TCA and 2×200 μl 70% ethanol. Finally, the plates were dried and radioactivity counted in a Packard TopCounter after the addition of 25 μl scintillation fluid per well. IC50's were calculated by plotting % inhibition versus log10 inhibitor concentrations.

Compound: Cc1cc(C#N)ccc1Oc1ccc(CC(=O)Nc2ccc(S(N)(=O)=O)cc2Br)c(C)c1C [Compound I-24, N-(2-Bromo-4-sulfamoyl-phenyl)-2-[4-(4-cyano-2-methyl-phenoxy)-2,3-dimethyl-phenyl]-acetamide]
- EC50 (HIV-1): 0.0026 µM
- IC50 (HIV-1 RT): 0.202 µM
